Here are results for 24 compounds from patent publication US8263656B2 (Hoffmann-La Roche Inc., priority 2008, dated 2012).

The structures appear in SMILES notation.

By IC50 is commonly meant the point on the concentration scale where inhibition reaches its midpoint. High values mean lower potency, low ones higher potency.

The assay concerns the target T1, human CRTH2 (Homo sapiens, UniProt Q9Y5Y4).
T1 construct: expressed in transfected cells
T1 sequence (Q9Y5Y4 1-395): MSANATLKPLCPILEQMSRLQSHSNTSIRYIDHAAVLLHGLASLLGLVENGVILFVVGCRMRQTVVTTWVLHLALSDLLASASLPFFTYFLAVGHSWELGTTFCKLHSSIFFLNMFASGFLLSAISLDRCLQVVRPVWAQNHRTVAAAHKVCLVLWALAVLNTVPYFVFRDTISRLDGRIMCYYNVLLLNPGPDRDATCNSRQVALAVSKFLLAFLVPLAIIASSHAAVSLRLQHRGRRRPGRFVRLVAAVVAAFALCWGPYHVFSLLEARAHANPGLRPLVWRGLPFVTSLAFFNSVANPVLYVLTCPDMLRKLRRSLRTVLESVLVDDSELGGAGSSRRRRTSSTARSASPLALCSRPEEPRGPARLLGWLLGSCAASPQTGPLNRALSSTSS
Put plainly: Human CRTH2 Receptor Binding Assay (whole cell, [3H]ramatroban competition). To be noted: CHO-K1 cells expressing human CRTH2 and G-alpha16; 20 nM [3H]ramatroban; 1 hour, room temperature. The text has this: A whole cell receptor binding assay using [^3H]ramatroban as the competing radioactive ligand was employed to evaluate the compound binding activity to human CRTH2. The radioactive ligand [^3H]ramatroban was synthesized according to Sugimoto et. al. (Eur. J. Pharmacol. 524, 30-37, 2005) to a specific activity of 42 Ci/mmol.
A cell line stably expressing human CRTH2 was established by transfecting CHO-K1 cells with two mammalian expression vectors that harbored human CRTH2 and G-alpha16 cDNAs, respectively, using FuGene® 6 transfection reagent (from Roche). Stable clones expressing CRTH2 were selected by staining each clone with BM16 (BD Pharmingen™ from BD Biosciences, a division of Becton, Dickinson and Company), which is a rat monoclonal antibody to human CRTH2. The cells were maintained as monolayer cultures in Ham's F-12 medium containing 10% fetal bovine serum, 100 units/mL penicillin, […] streptomycin, 2 mM glutamine, 0.5 mg/mL G418 (geneticin) for CRTH2, and 0.2 mg/mL hygromycin-B (for G-alpha 16). For whole cell receptor binding assay, the monolayer cells were rinsed once with PBS (phosphate buffered saline), dissociated using diammonium ethylenediaminetetraacetate (Versene™ EDTA from the Dow Chemical Company), and suspended in PBS containing 10 mM MgCl2 and 0.06% BSA (bovine serum albumin) at 1.5×10^6 cells/mL.
The binding reactions (0.2 mL) were performed in 96-well plates at room temperature in PBS containing 1.5×10^5 cells, 10 mM MgCl2, 0.06% BSA, 20 nM [^3H]ramatroban, and test compound at various concentrations. After 1 hour of binding reactions, the cells were harvested on GF™/B filter microplates (microtiter plates with embedded glass fiber from PerkinElmer, Inc.) and washed 5 times with PBS using a Filtermate™ Harvester (a cell harvester that harvests and washes cells from microplates from PerkinElmer, Inc.). The radioactivities bound to the cells were determined using a microplate scintillation counter (TopCount® NXT, from PerkinElmer, Inc.) after adding 50 μL of Microscint™ 20 scintillation fluid (from PerkinElmer, Inc.) to each well of the filter plates. The radioactivity from non-specific binding was determined by replacing compound with 10 μM of 15(R)-15-methyl PGD2 (from Cayman Chemical Company) in the reaction mixtures. The radioactivity bound to the cells in the absence of compound (total binding) was determined by replacing compound with 0.25% of DMSO (dimethyl sulfoxide) in the reaction mixture. Specific binding data were obtained by subtracting the radioactivity of non-specific binding from each binding data.
The IC50 value is defined as the concentration of the tested compound that is required for 50% inhibition of total specific binding. In order to calculate the IC50 value, the percent inhibition data were determined for 7 concentrations for each compound. The percent inhibition for a compound at each concentration was calculated according to the following formula, [1-(specific binding in the presence of compound)/(total specific binding)]×100. The IC50 value was then obtained by fitting the percent inhibition data to a sigmoidal dose-response (4 parameter logistic) model in the XLfit® software Excel add-in program [from ID Business Solutions Ltd., model 205, where F(x)=(A+(B−A)/(1+((C/x)^D)))].

`O=C(O)COc1c(F)c(Cl)cc2c1CCC[C@H]2NS(=O)(=O)c1cc(C(F)(F)F)cc(C(F)(F)F)c1` [Example 1-1, [(R)-5-(3,5-Bis-trifluoromethyl-benzenesulfonylamino)-3-chloro-2-fluoro-5,6,7,8-tetrahydro-naphthalen-1-yloxy]-acetic acid] yielded an IC50 of 2.4 nM.

`Cc1ccc2c(c1OCC(=O)O)CCCC2NS(=O)(=O)c1cc(C(F)(F)F)cc(C(F)(F)F)c1` (stereo not drawn) [Example 1-3, [5-(3,5-Bis-trifluoromethyl-benzenesulfonyl-amino)-2-methyl-5,6,7,8-tetrahydro-naphthalen-1-yloxy]-acetic acid] gave an IC50 of 147 nM.

Regarding `CCc1ccc2c(c1OCC(=O)O)CCCC2NS(=O)(=O)c1cc(C(F)(F)F)cc(C(F)(F)F)c1` (stereo not drawn) [Example 1-4, [5-(3,5-Bis-trifluoromethyl-benzenesulfonyl-amino)-2-ethyl-5,6,7,8-tetrahydro-naphthalen-1-yloxy]-acetic acid], the IC50 was 64 nM.

`Cc1c(Cl)cc2c(c1OCC(=O)O)CCCC2NS(=O)(=O)c1cc(C(F)(F)F)cc(C(F)(F)F)c1` (stereo not drawn) [Example 1-5, [5-(3,5-Bis-trifluoromethyl-benzenesulfonyl-amino)-3-chloro-2-methyl-5,6,7,8-tetrahydro-naphthalen-1-yloxy]-acetic acid] came in with an IC50 of 28.4 nM.

For `O=C(O)COc1cc(Cl)cc2c1CCCC2NS(=O)(=O)c1cc(C(F)(F)F)cc(C(F)(F)F)c1` (stereo not drawn) [Example 1-6], the IC50 stood at 5.8 nM. Compared with the last compound, the IC50 is about 4.9-fold lower.

As to `O=C(O)COc1c(Cl)ccc2c1CCCC2NS(=O)(=O)c1cc(C(F)(F)F)cc(C(F)(F)F)c1` (stereo not drawn) [Example 1-7, [5-(3,5-Bis-trifluoromethyl-benzenesulfonyl-amino)-2-chloro-5,6,7,8-tetrahydro-naphthalen-1-yloxy]-acetic acid], the IC50 was found to be 292 nM.

As to `O=C(O)COc1cc(Cl)cc2c1CCC[C@H]2NS(=O)(=O)c1cc(C(F)(F)F)cc(C(F)(F)F)c1` [Example 1-8], the IC50 was 3.5 nM.

`O=C(O)COc1c(F)c(Cl)cc2c1CCCC2NS(=O)(=O)c1cc(C(F)(F)F)cc(C(F)(F)F)c1` (stereo not drawn) [Example 1-9, [5-(3,5-Bis-trifluoromethyl-benzenesulfonyl-amino)-3-chloro-2-fluoro-5,6,7,8-tetrahydro-naphthalen-1-yloxy]-acetic acid] displayed an IC50 of 5.8 nM.

In turn, `O=C(O)COc1c(F)c(Cl)cc2c1CCCC2NS(=O)(=O)c1cc(Cl)ccc1Cl` (stereo not drawn) [Example 1-10] returned an IC50 of 11.4 nM.

In turn, `O=C(O)COc1cc(Cl)cc2c1CCCC2NS(=O)(=O)c1ccc(Cl)cc1Cl` (stereo not drawn) [Example 1-11, [3-Chloro-5-(2,4-dichloro-benzenesulfonyl-amino)-5,6,7,8-tetrahydro-naphthalen-1-yloxy]-acetic acid] came in with an IC50 of 3.5 nM.

With `O=C(O)COc1c(Cl)c(Cl)cc2c1CCCC2NS(=O)(=O)c1cc(C(F)(F)F)cc(C(F)(F)F)c1` (stereo not drawn) [Example 1-12, [5-(3,5-Bis-trifluoromethyl-benzenesulfonyl-amino)-2,3-dichloro-5,6,7,8-tetrahydro-naphthalen-1-yloxy]-acetic acid], the IC50 came to 26.1 nM.

As to `O=C(O)COc1cc(Cl)cc2c1CCCC2NS(=O)(=O)c1cc(Cl)ccc1Cl` (stereo not drawn) [Example 1-13, [3-Chloro-5-(2,5-dichloro-benzenesulfonyl-amino)-5,6,7,8-tetrahydro-naphthalen-1-yloxy]-acetic acid], the IC50 turned out to be 7.1 nM.

Compound `O=C(O)COc1c(F)c(Cl)cc2c1CCCC2NS(=O)(=O)c1ccc(Cl)cc1Cl` (stereo not drawn) [Example 1-14] showed an IC50 of 7.7 nM.

In turn, `O=C(O)COc1c(F)c(Cl)cc2c1CCCC2NS(=O)(=O)c1cc(Br)cc(C(F)(F)F)c1` (stereo not drawn) [Example 1-15, [5-(3-Bromo-5-trifluoromethyl-benzenesulfonyl-amino)-3-chloro-2-fluoro-5,6,7,8-tetrahydro-naphthalen-1-yloxy]-acetic acid] returned an IC50 of 8 nM.

`O=C(O)COc1cc(Cl)cc2c1CCCC2NS(=O)(=O)c1cc(F)cc(C(F)(F)F)c1` (stereo not drawn) [Example 1-16, [3-Chloro-5-(3-fluoro-5-trifluoromethyl-benzenesulfonyl-amino)-5,6,7,8-tetrahydro-naphthalen-1-yloxy]-acetic acid] registered an IC50 of 3.8 nM.

Regarding `O=C(O)COc1cc(Cl)cc2c1CCCC2NS(=O)(=O)c1cc(Br)cc(C(F)(F)F)c1` (stereo not drawn) [Example 1-17, [5-(3-Bromo-5-trifluoromethyl-benzenesulfonyl-amino)-3-chloro-5,6,7,8-tetrahydro-naphthalen-1-yloxy]-acetic acid], the IC50 came out at 3.6 nM.

The compound `O=C(O)COc1cc(Cl)cc2c1CCC[C@H]2NS(=O)(=O)c1ccc(Cl)cc1Cl` [Example 1-18, [(R)-3-Chloro-5-(2,4-dichloro-benzenesulfonyl-amino)-5,6,7,8-tetrahydro-naphthalen-1-yloxy]-acetic acid] came in with an IC50 of 2.8 nM.

For `O=C(O)COc1cc(Br)cc2c1CCCC2NS(=O)(=O)c1cc(C(F)(F)F)cc(C(F)(F)F)c1` (stereo not drawn) [Example 1-19, [5-(3,5-Bis-trifluoromethyl-benzenesulfonyl-amino)-3-bromo-5,6,7,8-tetrahydro-naphthalen-1-yloxy]-acetic acid], the IC50 worked out at 2.9 nM.

`O=C(O)COc1cc(Br)cc2c1CCC[C@H]2NS(=O)(=O)c1cc(C(F)(F)F)cc(C(F)(F)F)c1` [Example 1-20, [(R)-5-(3,5-Bis-trifluoromethyl-benzenesulfonyl-amino)-3-bromo-5,6,7,8-tetrahydro-naphthalen-1-yloxy]-acetic acid]: the IC50 was determined as 2.5 nM.

On to `O=C(O)COc1c(F)c(Cl)cc2c1CCCC2NS(=O)(=O)c1cc(F)cc(C(F)(F)F)c1` (stereo not drawn) [Example 1-21, [3-Chloro-2-fluoro-5-(3-fluoro-5-trifluoromethyl-benzenesulfonyl-amino)-5,6,7,8-tetrahydro-naphthalen-1-yloxy]-acetic acid], for which the IC50 is 2.8 nM.

In turn, `O=C(O)COc1c(F)ccc2c1CCCC2NS(=O)(=O)c1cc(C(F)(F)F)cc(C(F)(F)F)c1` (stereo not drawn) [Example 1-22, [5-(3,5-Bis-trifluoromethyl-benzenesulfonyl-amino)-2-fluoro-5,6,7,8-tetrahydro-naphthalen-1-yloxy]-acetic acid] gave an IC50 of 33.7 nM.

In turn, `COc1cc(OCC(=O)O)c2c(c1)[C@H](NS(=O)(=O)c1cc(C(F)(F)F)cc(C(F)(F)F)c1)CCC2` [Example 1-23, [(R)-5-(3,5-Bis-trifluoromethyl-benzenesulfonyl-amino)-3-methoxy-5,6,7,8-tetrahydro-naphthalen-1-yloxy]-acetic acid] came in with an IC50 of 3.6 nM.

For `O=C(O)COc1cc(-c2ccccc2)cc2c1CCCC2NS(=O)(=O)c1cc(C(F)(F)F)cc(C(F)(F)F)c1` (stereo not drawn) [Example 1-24, [5-(3,5-Bis-trifluoromethyl-benzenesulfonyl-amino)-3-phenyl-5,6,7,8-tetrahydro-naphthalen-1-yloxy]-acetic acid], the IC50 is 3.7 nM.

The compound `O=C(O)COc1c(Cl)ccc2c1CCC[C@H]2NS(=O)(=O)c1cc(C(F)(F)F)cc(C(F)(F)F)c1` [Example 1-25, [(R)-5-(3,5-Bis-trifluoromethyl-benzenesulfonyl-amino)-2-chloro-5,6,7,8-tetrahydro-naphthalen-1-yloxy]-acetic acid] came in with an IC50 of 95.9 nM.
